System: C. elegans
Assay: Consumption of GFP-expressing bacteria by a culture of C. elegans (fluorescent plate reader)
Type: in vivo, Caenorhabditis elegans
Procedure: Two cultures of C. elegans and GFP-expressing bacteria were placed in microtiter wells. In one well, a lethal concentration of 10 nanomolar ivermectin was placed. The GFP fluorescence in the wells was determined by a fluorescent plate reader instrument at the initial time, and after two days of culture.
As the C. elegans grow and reproduce, the E. coli lawn is diminished until no bacteria remain. Therefore, the reduction of the bacterial lawn is a measurement of an actively feeding population of C. elegans. The rate of decrease of the lawn is proportional to the number of feeding animals present. […] The consumption of bacteria can be used as an indirect indicator of the distribution of animals. Substances can be spotted onto a substrate in an array, and a uniform lawn of bacteria placed on the substrate, overlaying the array. A test population of C. elegans can be introduced and incubated for a suitable time period to allow consumption of the lawn. If the animals are attracted to a substance, then they will move to that region of the substrate and the bacterial lawn will be diminished at that spot in comparison to the surrounding lawn. Conversely, if a substance repels the animals, then the bacterial lawn at that spot will not be consumed. Thus, bacterial consumption can be used to assay the growth and location of a population of nematodes. If a GFP-expressing bacterial strain is used (Chalfie, et al., supra) as was done in the experiment of Example 3, the variations in bacterial density can be easily detected, for example, by photographing fluorescence intensity.
In this experiment, GFP-expressing bacteria are placed in two microtiter wells along with a population of C. elegans. Because the bacteria express GFP, the amount of bacteria can easily be assayed using a fluorescent plate reader (Cytoflour, Perspective Biosystems). […] Initially, both wells show equivalent levels of bacteria. […] FIG. 3 depicts this experiment. Thus, bacterial consumption can be used to assay the growth and feeding of a population of nematodes. If a GFP-expressing bacterial strain is used (Chalfie, et al., supra) as was done in the experiment shown in FIG. 3, the variations in bacterial density can be easily visualized by photographing fluorescence intensity.

**Q.** For ivermectin, which “GFP fluorescence of bacteria in the well (Relative Intensity)” value (10 nanomolar ivermectin, after two days of culture) is on record?
**A.** GFP fluorescence increases

**Q.** What about the “Effect on C. elegans” value (in vivo) of the same substance?
**A.** kills C. elegans

**Q.** What about the “Amount of GFP-expressing bacteria in the well” value (ivermectin-containing well, after 4 days of culture) of the same substance?
**A.** shows bacterial growth

**Q.** And the “Lethal concentration for C. elegans” value (microtiter well culture with GFP-expressing bacteria)?
**A.** 10 nM

Reference: US6909029B2, “Caenorhabditis elegans chemosensory bioassay for seven transmembrane receptor ligands” (SmithKline Beecham Corporation, priority 2000, dated 2005)
